Test results: patent US9610287B2 (H. Lundbeck A/S, priority 2011, dated 2017)

Key:
[1] = Elimination half life in human; conditions: in vivo
D1 receptor = D1 receptor (Homo sapiens, UniProt P21728); assay: PET study in healthy subjects, D1 receptor occupancy (11C-SCH23390); type: in vivo; conditions: read-out: D1 receptor occupancy in putamen
rats [2] = conditions: fumarate salt; cited from earlier work
D2 receptor = D2 receptor (Homo sapiens, UniProt P14416); assay: PET study in healthy subjects, D2 receptor occupancy (11C-raclopride); type: in vivo; conditions: read-out: D2 receptor occupancy in the putamen
D2 receptor, sequence (P14416 whole entry): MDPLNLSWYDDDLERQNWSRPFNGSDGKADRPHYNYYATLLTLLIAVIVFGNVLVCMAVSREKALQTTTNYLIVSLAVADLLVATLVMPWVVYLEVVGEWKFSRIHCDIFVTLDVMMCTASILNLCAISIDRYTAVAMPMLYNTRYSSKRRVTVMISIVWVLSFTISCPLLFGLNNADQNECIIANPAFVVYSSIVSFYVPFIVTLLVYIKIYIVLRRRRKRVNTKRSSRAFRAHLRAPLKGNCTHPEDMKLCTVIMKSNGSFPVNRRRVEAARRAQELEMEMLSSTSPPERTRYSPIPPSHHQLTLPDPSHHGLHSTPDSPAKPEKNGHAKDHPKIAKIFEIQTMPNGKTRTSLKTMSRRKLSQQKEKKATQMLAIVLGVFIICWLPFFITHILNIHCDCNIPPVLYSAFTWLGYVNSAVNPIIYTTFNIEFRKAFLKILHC

rats [3] = assay: Condition avoidance response (CAR) model in rats; type: in vivo, rat; conditions: at very low levels of D2 receptor occupancy
D2 receptors = biological target: T1, D2 receptors (Rattus norvegicus, UniProt P61169); assay: In vivo binding to D2 receptors in rat brain ([3H]-raclopride); conditions: sc, subcutaneous
T1 construct: the brain quickly removed and striatum and cerebellum dissected out and homogenized; from tissue; host or cells: striatum of male Wistar rats (in vivo)
T1 sequence (P61169 whole entry): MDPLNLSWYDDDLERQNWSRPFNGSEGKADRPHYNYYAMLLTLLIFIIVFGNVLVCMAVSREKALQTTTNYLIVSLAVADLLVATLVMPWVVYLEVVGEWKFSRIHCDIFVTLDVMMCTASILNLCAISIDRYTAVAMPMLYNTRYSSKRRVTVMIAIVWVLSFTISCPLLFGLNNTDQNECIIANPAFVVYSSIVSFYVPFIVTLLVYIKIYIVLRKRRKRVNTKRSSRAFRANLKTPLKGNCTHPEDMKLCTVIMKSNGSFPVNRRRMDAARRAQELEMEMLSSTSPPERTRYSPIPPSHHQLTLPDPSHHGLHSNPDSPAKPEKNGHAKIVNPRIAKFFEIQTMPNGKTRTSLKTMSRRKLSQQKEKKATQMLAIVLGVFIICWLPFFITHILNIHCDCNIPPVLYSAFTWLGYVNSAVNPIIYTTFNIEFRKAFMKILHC
Description: Description of In Vivo Binding to D2 Receptors in Rat Brain
In vivo binding is carried out according to Andersen et al (Eur J Pharmacol, (1987) 144:1-6) with a few modifications (Kapur S. et al, J Pharm Exp Ther, 2003, 305, 625-631). Briefly, 6 rats (male Wistar, 180-200 g) are treated with 20 mg/kg test compound subcutaneous 30 minutes before receiving 9.4 micro Ci [^3H]-raclopride intravenous via the tail vein.
15 minutes after the injection of the radio ligand the animals are killed by cervical dislocation, the brain quickly removed and striatum and cerebellum dissected out and homogenized in 5 mL (cerebellum in 20 mL) ice-cold buffer (50 mM K2PO4, pH 7.4). 1.0 mL of the homogenate is filtered through 0.1% PEI—soaked Whatman GF/C filters. This is completed within 60 seconds subsequent to the decapitation. Filters are washed 2 times with 5 mL ice-cold buffer and counted in a scintillation counter. A group of vehicle treated animals is used to determine [^3H]-raclopride total binding in striatum and non-specific binding in cerebellum. The homogenate is measured for protein content by the BCA protein determination assay (Smith P. K. et al (1985) Anal. Biochem., 150: 6-85).

schizophrenic patients = assay: Randomized, double-blind study of daily vs weekly dosing in schizophrenic patients, PANSS Total Score; type: in vivo, human
From the text: The study is a randomized, double-blind, parallel-group, exploratory study of safety, tolerability and PK of daily dosing vs weekly dosing of Compound (I) in schizophrenic patients.
The open-label period (OL_Period) is the period from start of open-label treatment (baseline) until stop of open-label treatment (at OL-withdrawal or randomisation to double-blind treatment, whichever occurs first).
The double-blind period (DB_Period) is the period from start of double-blind treatment (randomisation) until stop of double-blind treatment (at DB-withdrawal or completion, whichever occurs first), that is, the entire double-blind period including the PBO_Period.
The IMP dosing period (IMP_Period) is the period from start of open-label treatment (baseline) until stop of double-blind treatment (at withdrawal or completion, whichever occurs first), that is, the OL_Period plus the DB_Period.
A study was conducted with a study design as described in Example 2.

[4] = 2 mg/day given daily for 18 days
[5] = 10 mg/day given daily for 18 days

D1 receptor, sequence (P21728 whole entry): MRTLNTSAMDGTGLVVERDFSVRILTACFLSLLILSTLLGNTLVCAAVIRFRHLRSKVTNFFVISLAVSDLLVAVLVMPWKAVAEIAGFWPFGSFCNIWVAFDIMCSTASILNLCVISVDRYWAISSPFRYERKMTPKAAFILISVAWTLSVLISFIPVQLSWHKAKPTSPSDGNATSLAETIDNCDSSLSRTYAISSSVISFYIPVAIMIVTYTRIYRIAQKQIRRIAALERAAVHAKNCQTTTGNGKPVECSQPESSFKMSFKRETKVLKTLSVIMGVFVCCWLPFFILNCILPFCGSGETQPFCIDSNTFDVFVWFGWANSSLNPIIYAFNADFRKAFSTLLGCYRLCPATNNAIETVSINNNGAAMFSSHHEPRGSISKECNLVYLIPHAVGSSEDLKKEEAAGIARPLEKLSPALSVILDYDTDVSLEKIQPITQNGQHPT

**Q.** For CC1(C)CN([C@@H]2C[C@@H](c3ccccc3)c3ccc(Cl)cc32)CCN1 (relative stereo) [Compound (II), trans-1(6-chloro-3-phenyl-indan-1-yl)-3,3-dimethyl-piperazine], which half-life [1] is on record?
**A.** 300 to 400 h

**Q.** With CN1CCN([C@@H]2C[C@@H](c3ccccc3)c3ccc(Cl)cc32)CC1(C)C [Compound (I), 4-((1R,3S)-6-chloro-3-phenyl-indan-1-yl)-1,2,2-trimethyl-piperazine] as the compound, how does the receptor occupancy at 2 mg (D1 receptor; [4]) read?
**A.** 32%

**Q.** What about the receptor occupancy at 10 mg (D1 receptor; [5]) of the same compound?
**A.** 69%

**Q.** And the induction of catalepsy (rats [2])?
**A.** does not induce catalepsy

**Q.** What about the receptor occupancy at 2 mg (D2 receptor; [4]) of the same compound?
**A.** 11%

**Q.** And the receptor occupancy at 10 mg (D2 receptor; [5])?
**A.** 43%

**Q.** What about the “antipsychotic activity in CAR model” value (rats [3]) of the same compound?
**A.** possesses antipsychotic activity

**Q.** What about the half-life [1] of the same compound?
**A.** ~150 h

**Q.** What about the ED50 (D2 receptors) of the same compound?
**A.** 4.1 mg/kg

**Q.** And the “Mean (change in PANSS) Total Score from randomization” value (“Mean (change in PANSS) Total Score” for short) (schizophrenic patients; 10 mg/day, study day 29)?
**A.** 1.55

**Q.** And the “Mean (change in PANSS) Total Score” value (schizophrenic patients; 10 mg/day, study day 36)?
**A.** −1.00

**Q.** What about the “Mean (change in PANSS) Total Score” value (schizophrenic patients; 10 mg/day, study day 43) of the same compound?
**A.** −2.50

**Q.** What about the “Mean (change in PANSS) Total Score” value (schizophrenic patients; 10 mg/day, study day 50) of the same compound?
**A.** −3.50

**Q.** What about the “Mean (change in PANSS) Total Score” value (schizophrenic patients; 10 mg/day, study day 57) of the same compound?
**A.** −5.80

**Q.** What about the “Mean (change in PANSS) Total Score” value (schizophrenic patients; 20 mg/week, study day 29) of the same compound?
**A.** 0.00

**Q.** And the “Mean (change in PANSS) Total Score” value (schizophrenic patients; 20 mg/week, study day 36)?
**A.** 0.80

**Q.** What about the “Mean (change in PANSS) Total Score” value (schizophrenic patients; 20 mg/week, study day 43) of the same compound?
**A.** −2.00

**Q.** What about the “Mean (change in PANSS) Total Score” value (schizophrenic patients; 20 mg/week, study day 50) of the same compound?
**A.** −1.22

**Q.** What about the “Mean (change in PANSS) Total Score” value (schizophrenic patients; 20 mg/week, study day 57) of the same compound?
**A.** −4.38

**Q.** What about the “Mean (change in PANSS) Total Score” value (schizophrenic patients; 30 mg/week, study day 29) of the same compound?
**A.** 1.09

**Q.** What about the “Mean (change in PANSS) Total Score” value (schizophrenic patients; 30 mg/week, study day 36) of the same compound?
**A.** 0.50

**Q.** What about the “Mean (change in PANSS) Total Score” value (schizophrenic patients; 30 mg/week, study day 43) of the same compound?
**A.** 4.00

**Q.** And the “Mean (change in PANSS) Total Score” value (schizophrenic patients; 30 mg/week, study day 50)?
**A.** −4.14

**Q.** What about the “Mean (change in PANSS) Total Score” value (schizophrenic patients; 30 mg/week, study day 57) of the same compound?
**A.** −5.43

**Q.** What about the “Mean (change in PANSS) Total Score” value (schizophrenic patients; 45 mg/week, study day 29) of the same compound?
**A.** 0.40

**Q.** What about the “Mean (change in PANSS) Total Score” value (schizophrenic patients; 45 mg/week, study day 36) of the same compound?
**A.** −3.50

**Q.** And the “Mean (change in PANSS) Total Score” value (schizophrenic patients; 45 mg/week, study day 43)?
**A.** −5.70

**Q.** What about the “Mean (change in PANSS) Total Score” value (schizophrenic patients; 45 mg/week, study day 50) of the same compound?
**A.** −8.00

**Q.** What about the “Mean (change in PANSS) Total Score” value (schizophrenic patients; 45 mg/week, study day 57) of the same compound?
**A.** −6.88

**Q.** And the “reduction in PANSS Total Score compared with daily dose of 10 mg/day” value (schizophrenic patients; once weekly, 20 mg/week to 45 mg/week, in particular 30 and 45 mg/week)?
**A.** as effective in reduction in PANSS Total Score as a daily dose of 10 mg/day

**Q.** And the “reduction of PANSS Total Score compared with daily dose of 10 mg/day” value (schizophrenic patients; once weekly, between about 30 mg/week and about 45 mg/week)?
**A.** at least to the same extend as a daily dose of 10 mg/day
